{"source": "patent US11899025B2", "about": "“Pharmaceutical composition for preventing or treating neurodegenerative diseases comprising COX2 acetylating agent as active ingredient” (KYUNGPOOK NATIONAL UNIVERSITY INDUSTRY-ACADEMIC COOPERATION …, priority 2018, dated 2024)", "tested_on": "APP/PS1 mice", "assay": "Alzheimer's animal model (APP/PS1 mice): immunofluorescence, Thioflavin S, Morris Water Maze", "format": "in vivo, mouse", "conditions": "7-month-old APP/PS1 mice, 5 mg/kg N-acetyl sphingosine, 1 mg/kg FTY720 or 3 uM S1P daily for 4 weeks, intraperitoneal", "source_text": "It has been approved for mouse experiments by the Kyungpook National University Institutional Animal Care and Use Committee (IACUC). A transgenic mouse line overexpressing APPswe (hAPP695swe) or PS1 (presenilin-1M146V) based on C57BL/6 mice (Charles River, UK) was used. [Hereinafter, APP mouse: mouse overexpressing APPswe, PS1 mouse: mouse overexpressing presenilin-1M146V; GlaxoSmithKline]. As an Alzheimer's (AD) animal model, SphK1 tg (SphK1 gene overexpressing mouse) was crossed with APP mice and APP/PS1 mice to prepare APP/PS1/SphK1 tg mice. Niemanpick (NP-C) animal model, Balb/C (Orient, Wild type), NPC mutant mouse lacking NPC1 gene (Provided by Riken, Japan, NP-C mice; less weight than normal mice of the same age, and severe motor function loss from 4 to 6 weeks of age, limb tremors and seizures appear, and lifespan is approximately 9 to 10 weeks. Is) was used. As an animal model for amyotrophic lateral sclerosis (ALS), a transgenic mouse (FUS) line overexpressing RUS R521C based on C57BL/6 mice (Charles River, UK) was used.\nAfter fixing the cerebral and hippocampus of the mouse, anti-20G10 (mouse, 1:1000) against amyloid-β (Aβ) 42 and anti-G30 (rabbit, 1:1000) against Aβ 40, anti-MAP2 (chicken, 1:2000), anti-Synaptophysin (mouse, 1:100), anti-Synapsin1 (rabbit, 1:500), anti-PSD95 (mouse, 1:100), anti-Iba-1 (rabbit, 1:500), Anti-GFAP (rabbit, 1:500) was cultured together. The site was analyzed using a laser scanning confocal microscope or Olympus BX51 microscope equipped with Fluoview SV1000 imaging software (Olympus FV1000, Japan). Metamorph software (Molecular Devices) was used to quantify the percentage of the area of the stained area relative to the area of the total tissue.\nIn order to confirm the potential effect on learning and memory, MWM (Morris water maze) and fear conditioning experiments were performed. MWM learned the task 4 times a day for 10 days for the mice, the platform was removed on the 11th day, and a probe trial was performed. On the first day of Fear conditioning, the mice were placed in a conditioning chamber, and sound stimulation (10 kHz, 70 dB) and electrical stimulation (0.3 mA, 1 s) were given. On the second day, memory for the space was checked without stimulation in the same conditioning chamber as on the first day, and on the third day, a memory test for fear was performed when only sound stimulation was given in another conditioning chamber. An open field test was performed to evaluate motor ability and immediate activity. In the open field test, the mice were placed in a square box for 10 minutes to measure the overall exercise power, time, and distance.\nIn order to measure the neuroinflammatory resolution factor, after culturing neurons from mouse cerebrum, CM was prepared by treatment with 10 nM N-acetyl sphingosine 1 phosphate (Toronto Research chemicals, C262710) and N-acetyl sphingosine (Sigma, 01912). For COX2 acetylation analysis, neurons were cultured from mouse cerebrum and then treated with 2 uCi [^14C]N-acetyl sphingosine (ARC, ARC1024). In addition, for in vivo experiments, 7-month-old APP/PS1 mice were injected with 5 mg/kg N-acetyl sphingosine (Sigma, 01912), 1 mg/kg FTY720 and 3 uM S1P daily for 4 weeks via intraperitoneal injection. 1 month-old NPC mice were injected with 5 mg/kg N-acetyl sphingosine (Sigma, 01912) and 2-month-old FUS mice with 30 mg/kg N-acetyl sphingosine (Sigma, 01912) daily for 4 weeks via subcutaneous injection.\nThe present inventors confirmed AD lesions by injecting N-acetyl sphingosine, one of the COX2 acetylating agents identified through the above experiment, into an APP/PS1 animal model. First, in order to determine the effect of N-acetyl sphingosine on the neuroinflammatory response by secreting neuroinflammatory resolution factor, changes in microglia and astrocytes were observed. […]"}
{"smiles": "CCCCCCCCCCCCC/C=C/[C@@H](O)[C@H](CO)NC(C)=O", "note": "[N-acetyl sphingosine]", "values": [{"measurement": "microglia (Iba1) in brain cortex vs APP/PS1 mice", "setting": "FIG. 9a", "value": "remarkable decrease"}, {"measurement": "astrocytes (GFAP) in brain cortex vs APP/PS1 mice", "setting": "FIG. 9b", "value": "remarkable decrease"}, {"measurement": "amount of Aβ / Aβ deposition (Thioflavin S) vs APP/PS1 mice", "setting": "FIG. 9c", "value": "significantly lower"}, {"measurement": "memory and cognition (Morris Water Maze) vs APP/PS1 mice", "setting": "FIG. 9d", "value": "improved"}]}
